Drawing on ChEMBL document CHEMBL1135719, “Structural basis of RasGRP binding to high-affinity PKC ligands” (J Med Chem, 2002), this text covers Ki for four compounds.

Assay [1] deals with Protein kinase C delta type (Mus musculus, UniProt P28867). The experiment in a line: Displacement of [3H]- PDBu from Protein kinase C delta C1b domain. For orientation: Displacement assays read how much labelled ligand stays bound in the presence of the test substance.
The target of assay [2] is T1, RAS guanyl-releasing protein 1 (Rattus norvegicus, UniProt Q9R1K8).
T1 sequence (Q9R1K8 whole entry): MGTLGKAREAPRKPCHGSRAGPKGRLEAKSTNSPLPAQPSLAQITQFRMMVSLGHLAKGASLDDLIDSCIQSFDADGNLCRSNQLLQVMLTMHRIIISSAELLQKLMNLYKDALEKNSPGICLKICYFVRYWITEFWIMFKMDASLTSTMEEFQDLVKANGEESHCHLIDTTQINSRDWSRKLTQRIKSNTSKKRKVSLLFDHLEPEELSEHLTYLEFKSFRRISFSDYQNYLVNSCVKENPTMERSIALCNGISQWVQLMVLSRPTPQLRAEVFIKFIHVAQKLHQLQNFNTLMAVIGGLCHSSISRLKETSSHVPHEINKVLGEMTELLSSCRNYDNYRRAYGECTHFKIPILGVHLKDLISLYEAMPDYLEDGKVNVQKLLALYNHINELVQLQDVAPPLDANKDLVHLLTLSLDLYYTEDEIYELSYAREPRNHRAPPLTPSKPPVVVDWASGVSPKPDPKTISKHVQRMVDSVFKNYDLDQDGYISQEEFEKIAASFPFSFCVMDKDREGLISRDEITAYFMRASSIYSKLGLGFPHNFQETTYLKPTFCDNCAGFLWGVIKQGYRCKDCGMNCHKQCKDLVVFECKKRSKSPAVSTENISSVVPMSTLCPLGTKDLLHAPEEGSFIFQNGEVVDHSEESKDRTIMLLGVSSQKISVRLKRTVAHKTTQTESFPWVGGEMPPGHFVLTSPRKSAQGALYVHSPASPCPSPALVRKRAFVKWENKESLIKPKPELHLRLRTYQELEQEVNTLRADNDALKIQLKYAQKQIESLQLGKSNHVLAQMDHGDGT
The experiment in a line: Binding affinity against RAS guanyl releasing protein using [3H]- PDBu as the labeled ligand.

Protein kinase C delta type, sequence (P28867 whole entry, the tested form may be a part): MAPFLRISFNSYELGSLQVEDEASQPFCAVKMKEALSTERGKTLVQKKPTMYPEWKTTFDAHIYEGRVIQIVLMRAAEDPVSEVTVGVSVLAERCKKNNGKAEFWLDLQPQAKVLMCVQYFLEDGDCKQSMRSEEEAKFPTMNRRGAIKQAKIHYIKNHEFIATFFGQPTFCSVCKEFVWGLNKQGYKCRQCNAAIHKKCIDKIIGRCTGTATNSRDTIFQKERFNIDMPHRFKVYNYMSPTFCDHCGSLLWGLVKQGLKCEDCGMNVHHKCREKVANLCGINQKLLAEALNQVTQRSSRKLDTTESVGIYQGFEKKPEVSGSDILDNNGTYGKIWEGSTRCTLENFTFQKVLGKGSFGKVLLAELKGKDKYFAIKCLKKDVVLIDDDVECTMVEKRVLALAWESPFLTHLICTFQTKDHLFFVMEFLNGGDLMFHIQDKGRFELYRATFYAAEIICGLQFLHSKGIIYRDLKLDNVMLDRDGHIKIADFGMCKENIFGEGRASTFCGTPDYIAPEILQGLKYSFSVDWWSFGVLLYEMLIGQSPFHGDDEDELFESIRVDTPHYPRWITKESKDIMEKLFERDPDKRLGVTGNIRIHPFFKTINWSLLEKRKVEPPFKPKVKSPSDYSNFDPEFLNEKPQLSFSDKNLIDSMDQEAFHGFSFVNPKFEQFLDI

What is called Ki is the dissociation constant of the complex between target and ligand, obtained from inhibition or displacement. As to `CCCCCCCCc1ccc2c3c(c[nH]c13)C[C@@H](CO)NC(=O)[C@H](C(C)C)N2C`, the inhibition constant Ki in assay [1] amounted to 0.1 nM; in assay [2], 0.85 nM. Regarding `CCCCCCCCC#Cc1ccc2c(c1OC)C[C@@H](CO)NC(=O)[C@H](C(C)C)N2C`, the figures for the inhibitory constant (Ki) in assay [1] and in assay [2] were 35.1 nM and 13.9 nM, respectively. The like results for `CCCCCCCCC#Cc1ccc2c(c1)C[C@@H](CO)NC(=O)[C@H](C(C)C)N2C` were, in that order, 10.7 nM and 6.15 nM. `CC(C)[C@H]1C(=O)N[C@H](CO)Cc2c[nH]c3cccc(c23)N1C` [INDOLACTUM] came in with an inhibitory constant (Ki) in assay [2] of 2.54 nM. In other words, the single-digit nanomolar range.
